According to patent US8426437B2, “Pyrroloquinoline derivatives and their use as protein kinases inhibitors” (Pierre Fabre Medicament, priority 2005, dated 2013):
pIC50: −log10 of the molar value.

molecular target: T1, RET (Homo sapiens, UniProt P07949); assay: Inhibition of RET kinase activity, recombinant RET method (Kinase-Glo); type: biochemical; details: RET 2 μg/ml, poly-EY4 substrate, 20 μM ATP, two hours at 30° C.
T1 construct: purchased Upstate 14-570MG
Outline: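 Recombinant RET at 2 μg/ml in 20 mM MOPS/NaOH pH 7.0, 1 mM EDTA, 5% glycerol, 0.01% Brij35, 0.1% 2-mercaptoethanol, 1 mg/ml BSA; compounds 10 nM–30 μM final.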

T1 sequence (P07949 29-1114): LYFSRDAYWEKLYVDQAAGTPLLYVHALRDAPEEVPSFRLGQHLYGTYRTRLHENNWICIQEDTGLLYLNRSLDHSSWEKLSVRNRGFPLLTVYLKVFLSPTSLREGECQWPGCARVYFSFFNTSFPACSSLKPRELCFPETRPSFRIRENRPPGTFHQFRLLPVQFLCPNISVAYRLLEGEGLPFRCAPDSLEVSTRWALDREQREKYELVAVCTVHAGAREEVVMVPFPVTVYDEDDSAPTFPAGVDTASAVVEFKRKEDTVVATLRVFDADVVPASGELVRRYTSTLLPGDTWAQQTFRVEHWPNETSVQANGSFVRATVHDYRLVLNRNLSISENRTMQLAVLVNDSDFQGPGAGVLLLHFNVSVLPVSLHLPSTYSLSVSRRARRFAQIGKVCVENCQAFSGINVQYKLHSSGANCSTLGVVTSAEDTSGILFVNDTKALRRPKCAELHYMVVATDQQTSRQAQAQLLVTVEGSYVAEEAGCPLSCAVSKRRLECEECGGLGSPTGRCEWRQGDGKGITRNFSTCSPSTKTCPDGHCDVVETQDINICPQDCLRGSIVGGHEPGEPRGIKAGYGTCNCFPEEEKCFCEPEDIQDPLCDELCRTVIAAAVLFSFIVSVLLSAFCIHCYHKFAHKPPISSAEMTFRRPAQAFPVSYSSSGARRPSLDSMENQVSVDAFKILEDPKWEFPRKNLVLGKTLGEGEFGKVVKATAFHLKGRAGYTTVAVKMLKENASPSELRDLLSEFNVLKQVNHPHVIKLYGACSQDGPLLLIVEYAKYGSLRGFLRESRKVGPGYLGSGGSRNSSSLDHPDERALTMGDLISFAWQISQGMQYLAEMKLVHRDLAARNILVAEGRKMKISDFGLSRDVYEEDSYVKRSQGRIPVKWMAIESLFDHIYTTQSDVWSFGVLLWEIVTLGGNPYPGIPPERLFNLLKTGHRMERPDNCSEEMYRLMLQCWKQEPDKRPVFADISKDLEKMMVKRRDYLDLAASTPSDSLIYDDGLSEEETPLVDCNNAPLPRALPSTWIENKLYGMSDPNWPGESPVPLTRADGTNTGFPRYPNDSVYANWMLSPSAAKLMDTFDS

| SMILES | pIC50 |
| --- | --- |
| CCOC(=O)c1c[nH]c2c(=O)[nH]c3ccc(CCc4ccccc4)cc3c12 [Compound 207, 4-Oxo-8-phenethyl-4,5-dihydro-3H-pyrrolo[2,3-c]quinoline-1-ethyl carboxylate] | 6.00 to 7.00 |
| CCOC(=O)c1c[nH]c2c(=O)[nH]c3ccc(CCC(C)(C)O)cc3c12 [Compound 208, 8-(3-Hydroxy-3-methyl-butyl)-4-oxo-4,5-dihydro-3H-pyrrolo[2,3-c]quinoline-1-ethyl carboxylate] | 6.00 to 7.00 |
| CCCOC(=O)c1c[nH]c2c(=O)[nH]c3ccc(I)cc3c12 [Compound 210, 8-Iodo-4-oxo-4,5-dihydro-3H-pyrrolo[2,3-c]quinoline-1-propyl carboxylate] | 6.00 to 7.00 |
| O=C(OC1CCCC1)c1c[nH]c2c(=O)[nH]c3ccc(I)cc3c12 [Compound 211, 8-Iodo-4-oxo-4,5-dihydro-3H-pyrrolo[2,3-c]quinoline-1-cyclopentyl carboxylate] | 5.00 to 6.00 |
| CC(C)COC(=O)c1c[nH]c2c(=O)[nH]c3ccc(I)cc3c12 [Compound 212, 8-Iodo-4-oxo-4,5-dihydro-3H-pyrrolo[2,3-c]quinoline-1-isobutyl carboxylate] | 5.00 to 6.00 |
| CCOC(=O)c1c[nH]c2c(=O)[nH]c3cc(OC)ccc3c12 [Compound 213, 7-Methoxy-4-oxo-4,5-dihydro-3H-pyrrolo[2,3-c]quinoline-1-ethyl carboxylate] | 5.00 to 6.00 |
| CCOC(=O)c1c[nH]c2c(=O)[nH]c3cc(OC)c(I)cc3c12 [Compound 214, 8-Iodo-7-methoxy-4-oxo-4,5-dihydro-3H-pyrrolo[2,3-c]quinoline-1-ethyl carboxylate] | 5.00 to 6.00 |
| CCOC(=O)c1c[nH]c2c(=O)[nH]c3cc(F)ccc3c12 [Compound 215, 7-Fluoro-4-oxo-4,5-dihydro-3H-pyrrolo[2,3-c]quinoline-1-ethyl carboxylate] | 5.00 to 6.00 |
| CCOC(=O)c1c[nH]c2c(=O)[nH]c3cc(Cl)ccc3c12 [Compound 216, 7-Chloro-4-oxo-4,5-dihydro-3H-pyrrolo[2,3-c]quinoline-1-ethyl carboxylate] | 5.00 to 6.00 |
| CCOC(=O)c1c[nH]c2c(=O)[nH]c3ccc(C(=O)/C=C/N(C)C)cc3c12 [Compound 217, 8-(3-Dimethylamino-acryloyl)-4-oxo-4,5-dihydro-3H-pyrrolo[2,3-c]quinoline-1-ethyl carboxylate] | 6.00 to 7.00 |
| CCOC(=O)c1c[nH]c2c(=O)[nH]c3ccc(C(=O)CN4CCOCC4)cc3c12 [Compound 218, 8-(2-Morpholin-4-yl-acetyl)-4-oxo-4,5-dihydro-3H-pyrrolo[2,3-c]quinoline-ethyl carboxylate] | 5.00 to 6.00 |
| CCOC(=O)c1c[nH]c2c(=O)[nH]c3ccc(Sc4ccccc4)cc3c12 [Compound 220, 4-Oxo-8-phenylsulfanyl-4,5-dihydro-3H-pyrrolo[2,3-c]quinoline-1-ethyl carboxylate] | 6.00 to 7.00 |
| CCOC(=O)c1c[nH]c2c(=O)[nH]c3ccc(Sc4ccc(NC(C)=O)cc4)cc3c12 [Compound 223, 8-(4-Acetylaminophenylsulfanyl)-4-oxo-4,5-dihydro-3H-pyrrolo[2,3-c]quinoline-1-ethyl carboxylate] | 6.00 to 7.00 |
| CCOC(=O)c1c[nH]c2c(=O)[nH]c3ccc(Sc4cccc(N)c4)cc3c12 [Compound 224, 8-(3-Aminophenylsulfanyl)-4-oxo-4,5-dihydro-3H-pyrrolo[2,3-c]quinoline-1-ethyl carboxylate] | 6.00 to 7.00 |
| CCOC(=O)c1c[nH]c2c(=O)[nH]c3ccc(Sc4cccc(NC(C)=O)c4)cc3c12 [Compound 225, 8-(3-Acetylaminophenylsulfanyl)-4-oxo-4,5-dihydro-3H-pyrrolo[2,3-c]quinoline-1-ethyl carboxylate] | 6.00 to 7.00 |
| CCOC(=O)c1c[nH]c2c(=O)[nH]c3ccc(-c4ccccc4)cc3c12 [Compound 228, 4-Oxo-8-phenyl-4,5-dihydro-3H-pyrrolo[2,3-c]quinoline-1-ethyl carboxylate] | 5.00 to 6.00 |
| CCOC(=O)c1c[nH]c2c(=O)[nH]c3ccc(-c4ccccc4Cl)cc3c12 [Compound 229, 8-(2-Chlorophenyl)-4-oxo-4,5-dihydro-3H-pyrrolo[2,3-c]quinoline-1-ethyl carboxylate] | 6.00 to 7.00 |
| CCOC(=O)c1c[nH]c2c(=O)[nH]c3ccc(-c4ccccc4NC(=O)OC(C)(C)C)cc3c12 [Compound 230, 8-(2-tert-Butoxycarbonylaminophenyl)-4-oxo-4,5-dihydro-3H-pyrrolo[2,3-c]quinoline-1-ethyl carboxylate] | 4.00 to 5.00 |
| CCOC(=O)c1c[nH]c2c(=O)[nH]c3ccc(-c4ccccc4N)cc3c12 [Compound 231, 8-(2-Aminophenyl)-4-oxo-4,5-dihydro-3H-pyrrolo[2,3-c]quinoline-1-ethyl carboxylate] | 6.00 to 7.00 |

| SMILES | pIC50 |
| --- | --- |
| CCOC(=O)c1c[nH]c2c(=O)[nH]c3ccc(-c4ccccc4NS(C)(=O)=O)cc3c12 [Compound 232, 8-(2-Methanesulfonylaminophenyl)-4-oxo-4,5-dihydro-3-pyrrolo[2,3-c]quinoline-1-ethyl carboxylate] | 6.00 to 7.00 |
| CCOC(=O)c1c[nH]c2c(=O)[nH]c3ccc(-c4cccc(NC(=O)OC(C)(C)C)c4)cc3c12 [Compound 233, 8-(3-tert-Butoxycarbonylaminophenyl)-4-oxo-4,5-dihydro-3H-pyrrolo[2,3-c]quinoline-1-ethyl carboxylate] | 5.00 to 6.00 |
| CCOC(=O)c1c[nH]c2c(=O)[nH]c3ccc(-c4cccc(NS(C)(=O)=O)c4)cc3c12 [Compound 235, 8-(3-Methanesulfonylaminophenyl)-4-oxo-4,5-dihydro-3H-pyrrolo[2,3-c]quinoline-1-ethyl carboxylate] | 6.00 to 7.00 |
| CCOC(=O)c1c[nH]c2c(=O)[nH]c3ccc(-c4cccc(NC(C)=O)c4)cc3c12 [Compound 236, 8-(3-Acetylaminophenyl)-4-oxo-4,5-dihydro-3H-pyrrolo[2,3-c]quinoline-1-ethyl carboxylate] | 6.00 to 7.00 |
| CCOC(=O)c1c[nH]c2c(=O)[nH]c3ccc(-c4cccc(C#N)c4)cc3c12 [Compound 239, 8-(3-Cyano-phenyl)-4-oxo-4,5-dihydro-3H-pyrrolo[2,3-c]quinoline-1-ethyl carboxylate] | 6.00 to 7.00 |
| CCOC(=O)c1c[nH]c2c(=O)[nH]c3ccc(-c4ccc(NC(=O)OC(C)(C)C)cc4)cc3c12 [Compound 243, 8-(4-tert-Butoxycarbonylaminophenyl)-4-oxo-4,5-dihydro-3H-pyrrolo[2,3-c]quinoline-1-ethyl carboxylate] | 5.00 to 6.00 |
| CCOC(=O)c1c[nH]c2c(=O)[nH]c3ccc(-c4ccc(S(C)(=O)=O)cc4)cc3c12 [Compound 245, 8-(4-Methanesulfonyl-phenyl)-4-oxo-4,5-dihydro-3H-pyrrolo[2,3-c]quinoline-1-ethyl carboxylate] | 5.00 to 6.00 |
| CCOC(=O)c1c[nH]c2c(=O)[nH]c3ccc(-c4ccc(OC)cc4)cc3c12 [Compound 246, 8-(4-Methoxy-phenyl)-4-oxo-4,5-dihydro-3H-pyrrolo[2,3-c]quinoline-1-ethyl carboxylate] | 5.00 to 6.00 |
| CCOC(=O)c1c[nH]c2c(=O)[nH]c3ccc(-c4ccc(C#N)cc4)cc3c12 [Compound 247, 8-(4-Cyano-phenyl)-4-oxo-4,5-dihydro-3H-pyrrolo[2,3-c]quinoline-1-ethyl carboxylate] | 4.00 to 5.00 |
| CCOC(=O)c1c[nH]c2c(=O)[nH]c3ccc(-c4ccc5c(c4)OCCO5)cc3c12 [Compound 248, 8-(2,3-Dihydro-benzo[1,4]dioxin-6-yl)-4-oxo-4,5-dihydro-3H-pyrrolo[2,3-c]quinoline-1-ethyl carboxylate] | 6.00 to 7.00 |
| CCOC(=O)c1c[nH]c2c(=O)[nH]c3ccc(-c4cccc5ccccc45)cc3c12 [Compound 249, 8-Naphthalen-1-yl-4-oxo-4,5-dihydro-3H-pyrrolo[2,3-c]quinoline-1-ethyl carboxylate] | 6.00 to 7.00 |
| CCOC(=O)c1c[nH]c2c(=O)[nH]c3ccc(-c4cccc5cccnc45)cc3c12 [Compound 250, 4-Oxo-8-quinolin-8-yl-4,5-dihydro-3H-pyrrolo[2,3-c]quinoline-1-ethyl carboxylate] | 5.00 to 6.00 |
| CCOC(=O)c1c[nH]c2c(=O)[nH]c3ccc(-c4cc(S(C)(=O)=O)ccc4N)cc3c12 [Compound 251, 8-(2-Amino-5-methanesulfonyl-phenyl)-4-oxo-4,5-dihydro-3H-pyrrolo[2,3-c]quinoline-1-ethyl carboxylate] | 6.00 to 7.00 |
| CCOC(=O)c1c[nH]c2c(=O)[nH]c3ccc(-c4ccc5[nH]ccc5c4)cc3c12 [Compound 252, 8-(1H-Indol-5-yl)-4-oxo-4,5-dihydro-3H-pyrrolo[2,3-c]quinoline-1-ethyl carboxylate] | 6.00 to 7.00 |
| CCOC(=O)c1c[nH]c2c(=O)[nH]c3ccc(-c4ccc5c(ccn5C(=O)OC(C)(C)C)c4)cc3c12 [Compound 253, 8-(1-tert-Butoxycarbonyl-1H-indol-5-yl)-4-oxo-4,5-dihydro-3H-pyrrolo[2,3-c]quinoline-1-ethyl carboxylate] | 5.00 to 6.00 |
| CCCOC(=O)c1c[nH]c2c(=O)[nH]c3ccc(-c4cccc(S(C)(=O)=O)c4)cc3c12 [Compound 254, 8-(3-Methanesulfonyl-phenyl)-4-oxo-4,5-dihydro-3H-pyrrolo[2,3-c]quinoline-1-propyl carboxylate] | 6.00 to 7.00 |
| CC(C)COC(=O)c1c[nH]c2c(=O)[nH]c3ccc(-c4cccc(S(C)(=O)=O)c4)cc3c12 [Compound 255, 8-(3-Methanesulfonyl-phenyl)-4-oxo-4,5-dihydro-3H-pyrrolo[2,3-c]quinoline-1-isobutyl carboxylate] | 5.00 to 6.00 |
| CS(=O)(=O)c1cccc(-c2ccc3[nH]c(=O)c4[nH]cc(C(=O)OC5CCCC5)c4c3c2)c1 [Compound 256, 8-(3-Methanesulfonyl-phenyl)-4-oxo-4,5-dihydro-3H-pyrrolo[2,3-c]quinoline-1-cyclopentyl carboxylate] | 6.00 to 7.00 |
| CCOC(=O)c1c[nH]c2c(=O)[nH]c3cc(Cl)c(-c4cccc(S(C)(=O)=O)c4)cc3c12 [Compound 257, 7-Chloro-8-(3-methanesulfonyl-phenyl)-4-oxo-4,5-dihydro-3H-pyrrolo[2,3-c]quinoline-1-ethyl carboxylate] | 6.00 to 7.00 |
